Measured values reported in ChEMBL document CHEMBL4665629, “An optimised series of substituted N-phenylpyrrolamides as DNA gyrase B inhibitors” (Eur J Med Chem, 2019).

Assays:
Klebsiella pneumoniae = test: Antibacterial activity against Klebsiella pneumoniae ATCC 700603 assessed as bacterial growth inhibition at 50 uM incubated for 24 hrs by CLSI protocol based broth microdilution assay relative to control; type: functional
Enterococcus faecium = test: Antibacterial activity against Enterococcus faecium ATCC 35667 assessed as bacterial growth inhibition at 50 uM incubated for 24 hrs by CLSI protocol based broth microdilution assay relative to control; type: functional
DNA gyrase = DNA gyrase (Escherichia coli, UniProt P0AES4+P0AES6); test: Inhibition of Escherichia coli DNA gyrase using biotinylated oligonucleotide as substrate incubated for 30 mins in presence of ATP by fluorescence-based microplate reader assay; type: protein-complex assay
Acinetobacter baumannii = test: Antibacterial activity against Acinetobacter baumannii ATCC 19606 assessed as bacterial growth inhibition at 50 uM incubated for 24 hrs by CLSI protocol based broth microdilution assay relative to control; type: functional; conditions: ATCC 19606 = CIP 70.34 = JCM 6841
Staphylococcus aureus = test: Antibacterial activity against Staphylococcus aureus ATCC 29213 assessed as bacterial growth inhibition at 50 uM incubated for 24 hrs by CLSI protocol based broth microdilution assay relative to control; type: functional
Enterococcus faecalis = test: Antibacterial activity against Enterococcus faecalis ATCC 29212 assessed as bacterial growth inhibition at 50 uM incubated for 24 hrs by CLSI protocol based broth microdilution assay relative to control; type: functional
Pseudomonas aeruginosa = test: Antibacterial activity against Pseudomonas aeruginosa ATCC 27853 assessed as bacterial growth inhibition at 50 uM incubated for 24 hrs by CLSI protocol based broth microdilution assay relative to control; type: functional
Escherichia coli [1] = test: Antibacterial activity against outer membrane impaired Escherichia coli JD17464 harboring lpxC mutant assessed as bacterial growth inhibition at 50 uM incubated for 24 hrs by CLSI protocol based broth microdilution assay relative to control; type: functional
Escherichia coli [2] = test: Antibacterial activity against efflux pump d effect ive Escherichia coli JW5503 harbouring tolC mutant assessed as bacterial growth inhibition at 50 uM incubated for 24 hrs by CLSI protocol based broth microdilution assay relative to control; type: functional
Escherichia coli [3] = test: Antibacterial activity against Escherichia coli ATCC 25922 assessed as bacterial growth inhibition at 50 uM incubated for 24 hrs by CLSI protocol based broth microdilution assay relative to control; type: functional
Klebsiella aerogenes = test: Antibacterial activity against Enterobacter aerogenes ATCC 13408 assessed as bacterial growth inhibition at 50 uM incubated for 24 hrs by CLSI protocol based broth microdilution assay relative to control; type: functional
[4] = Inhibition of Escherichia coli DNA topoisomerase 4 assessed as residual activity at 1 uM using biotinylated oligonucleotide as substrate incubated for 30 mins in presence of ATP by fluorescence-based microplate reader assay relative to control
[5] = target: DNA gyrase (Staphylococcus aureus) (UniProt P0A0K8+P20831); test: Inhibition of Staphylococcus aureus DNA gyrase assessed as residual activity at 1 uM using biotinylated oligonucleotide as substrate incubated for 30 mins in presence of ATP by fluorescence-based microplate reader assay relative to control; type: protein-complex assay
Sequence of DNA gyrase (Staphylococcus aureus) (P0A0K8 2-644 limits assumed): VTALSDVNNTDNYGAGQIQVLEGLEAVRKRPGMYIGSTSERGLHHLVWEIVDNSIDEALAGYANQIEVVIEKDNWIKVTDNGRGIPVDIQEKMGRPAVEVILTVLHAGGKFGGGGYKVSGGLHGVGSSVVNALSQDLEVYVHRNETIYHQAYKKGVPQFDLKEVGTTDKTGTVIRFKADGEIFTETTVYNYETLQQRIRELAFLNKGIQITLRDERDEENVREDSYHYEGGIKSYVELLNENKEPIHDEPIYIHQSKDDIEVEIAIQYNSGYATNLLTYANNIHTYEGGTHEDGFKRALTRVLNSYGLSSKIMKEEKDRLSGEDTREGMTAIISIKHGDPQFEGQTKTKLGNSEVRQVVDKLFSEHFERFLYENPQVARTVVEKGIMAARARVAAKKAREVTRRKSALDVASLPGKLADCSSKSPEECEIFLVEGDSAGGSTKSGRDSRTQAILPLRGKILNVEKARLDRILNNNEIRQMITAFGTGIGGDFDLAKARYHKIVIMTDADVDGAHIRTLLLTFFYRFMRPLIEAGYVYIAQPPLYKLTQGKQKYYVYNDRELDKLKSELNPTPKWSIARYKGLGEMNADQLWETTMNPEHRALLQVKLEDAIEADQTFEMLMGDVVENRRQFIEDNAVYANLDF
Sequence of DNA gyrase (Staphylococcus aureus) (P20831 whole entry partner): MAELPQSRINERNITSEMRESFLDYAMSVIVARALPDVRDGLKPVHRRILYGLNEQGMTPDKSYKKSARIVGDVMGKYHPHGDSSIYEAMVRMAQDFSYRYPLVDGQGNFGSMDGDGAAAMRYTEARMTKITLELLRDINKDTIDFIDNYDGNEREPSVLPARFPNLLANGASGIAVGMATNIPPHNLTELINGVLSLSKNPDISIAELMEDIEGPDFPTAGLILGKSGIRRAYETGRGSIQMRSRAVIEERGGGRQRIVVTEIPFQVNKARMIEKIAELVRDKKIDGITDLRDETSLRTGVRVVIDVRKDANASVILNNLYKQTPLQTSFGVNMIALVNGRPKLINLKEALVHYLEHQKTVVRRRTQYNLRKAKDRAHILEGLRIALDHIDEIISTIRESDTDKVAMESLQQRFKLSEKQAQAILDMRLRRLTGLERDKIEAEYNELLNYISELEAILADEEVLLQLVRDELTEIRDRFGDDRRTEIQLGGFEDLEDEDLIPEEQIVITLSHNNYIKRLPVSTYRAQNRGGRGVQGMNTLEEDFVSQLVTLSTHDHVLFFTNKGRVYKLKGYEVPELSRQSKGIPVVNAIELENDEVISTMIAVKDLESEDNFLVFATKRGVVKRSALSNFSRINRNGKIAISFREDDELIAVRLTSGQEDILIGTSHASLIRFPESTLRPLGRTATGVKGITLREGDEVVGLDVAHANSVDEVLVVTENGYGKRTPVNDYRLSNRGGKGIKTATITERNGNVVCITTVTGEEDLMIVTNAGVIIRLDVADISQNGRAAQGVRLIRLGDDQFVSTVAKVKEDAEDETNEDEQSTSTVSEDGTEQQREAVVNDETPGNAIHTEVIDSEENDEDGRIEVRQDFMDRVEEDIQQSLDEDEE

[6] = target: Topoisomerase IV (Staphylococcus aureus) (UniProt P0C1U9+P0C1S7); test: Inhibition of Staphylococcus aureus DNA topoisomerase 4 assessed as residual activity at 1 uM using biotinylated oligonucleotide as substrate incubated for 30 mins in presence of ATP by fluorescence-based microplate reader assay relative to control; type: protein-complex assay
[7] = target: DNA gyrase (Escherichia coli) (UniProt P0AES6+P0AES4); test: Inhibition of Escherichia coli DNA gyrase assessed as residual activity at 1 uM using biotinylated oligonucleotide as substrate incubated for 30 mins in presence of ATP by fluorescence-based microplate reader assay relative to control; type: protein-complex assay

SMILES	inhibition at 50 µM (Klebsiella pneumoniae) [%]	inhibition at 50 µM (Enterococcus faecium) [%]	IC50 (DNA gyrase) [nM]	inhibition at 50 µM (Acinetobacter baumannii) [%]	inhibition at 50 µM (Staphylococcus aureus) [%]	inhibition at 50 µM (Enterococcus faecalis) [%]	inhibition at 50 µM (Pseudomonas aeruginosa) [%]	inhibition at 50 µM (Escherichia coli [1]) [%]	inhibition at 50 µM (Escherichia coli [2]) [%]	inhibition at 50 µM (Escherichia coli [3]) [%]	inhibition at 50 µM (Klebsiella aerogenes) [%]	Activity [4] [%]	Activity [5] [%]	Activity [6] [%]	Activity [7] [%]
N#CCNC(=O)c1ccc(NC(=O)c2cc(Br)c(Br)[nH]2)cc1	5	2	960	2	-5	7	11	-5	-9	2	7				
Cc1[nH]c(C(=O)Nc2ccc(C(=O)NS(C)(=O)=O)cc2)c(Cl)c1Cl	-2	-3	160	6	5	16	3	4	73	15	-8	98	55	81	
COC(=O)CNC(=O)c1ccc(NC(=O)c2[nH]c(C)c(Cl)c2Cl)c(O[C@H]2CCN(C(=O)OC(C)(C)C)C2)c1	8	23		9	12		12	30	-4	10	7				93
Cc1[nH]c(C(=O)Nc2ccc(S(=O)(=O)Nc3nccs3)cc2)c(Cl)c1Cl	1	43		10	-2	23	10	17	5	13	-2				100
COC(=O)CNS(=O)(=O)c1ccc(NC(=O)c2[nH]c(C)c(Cl)c2Cl)cc1	1	34		9	12	8	5	4	-1	18	-4				87
CC(C)(C)OC(=O)N1CCC(Oc2cc(C(=O)NCC(=O)O)ccc2NC(=O)c2cc(Br)c(Br)[nH]2)CC1	9	-76	630	-4	-18		6	-6	-4	-14	-14				
COC(=O)[C@@H](C)NC(=O)c1ccc(NC(=O)c2[nH]c(C)c(Cl)c2Cl)c(OC(C)C)c1	16	-15		8	29	-41	5	27	11	12	12				87
Cc1[nH]c(C(=O)Nc2ccc(C(=O)N[C@H](C)C(=O)O)cc2OC2CCN(C(=O)OC(C)(C)C)CC2)c(Cl)c1Cl	-13	59	71	15	-22		-10	10	-8	-7	-5	99	68	79	
CCOC(=O)c1cc2cc(NC(=O)c3[nH]c(C)c(Cl)c3Cl)ccc2[nH]1															100
COC(=O)CNC(=O)c1ccc(NC(=O)c2cc(Br)c(Br)[nH]2)c(OC2CCN(C(=O)OC(C)(C)C)CC2)c1	-12	-75		-4	-17		-1	1	-4	-8	-9				100
CCOC(=O)C(NC(=O)c1ccc(NC(=O)c2cc(Br)c(Br)[nH]2)cc1)C(=O)OCC	1	-8		3	12	8	5	2	-8	9	1				78
COC(=O)CNC(=O)c1ccc(NC(=O)c2[nH]c(C)c(Cl)c2Cl)c(OC2CCN(C(=O)OC(C)(C)C)CC2)c1	-2	-19		15	8		-18	31	7	26	5				100
Cc1[nH]c(C(=O)Nc2ccc(S(=O)(=O)NCC(=O)O)cc2)c(Cl)c1Cl	7	3		5	4	9	-4	1	6	7	7				87
O=C(O)CNC(=O)c1ccc(NC(=O)c2cc(Br)c(Br)[nH]2)c(OC2CCNCC2)c1	4	2	20	1	3		2	5	-17	-9	3	100	67	100	
Cc1[nH]c(C(=O)Nc2ccc(C(=O)NCC(=O)O)cc2O[C@H]2CCN(C(=O)OC(C)(C)C)C2)c(Cl)c1Cl	9	9	92	1	-1		14	-2	2	5	6				
COC(=O)[C@@H](C)NC(=O)c1ccc(NC(=O)c2[nH]c(C)c(Cl)c2Cl)c(OC2CCN(C(=O)OC(C)(C)C)CC2)c1	2	52		36	30		33	44	40	18	22				94
Cc1[nH]c(C(=O)Nc2ccc(S(N)(=O)=O)cc2)c(Cl)c1Cl	4	54		6	12	6	-4	4	2	13	1				82
CCOC(=O)C(NC(=O)c1ccc(NC(=O)c2[nH]c(C)c(Cl)c2Cl)cc1)C(=O)OCC	18	11	7700	9	32	14	-6	8	8	13	11				
